Laboratory results from patent US9029325B2, “Amylin analogues and pharmaceutical compositions thereof” (Novo Nordisk A/S, priority 2011, dated 2015).
Starred links: 1 amine or outer side, 2 acyl side, 3 side chain; linkers in the order of their positions; H or OH if unused. Positions of bridges follow the written chain, without caps; N, C: chain ends. Residues, ends and D or L forms follow the SMILES beside them. *: point of attachment. C20 diacid = O=C(O)CCCCCCCCCCCCCCCCCCC(=O)*; γGlu = O=C(O)[C@H](CCC(=O)[*:2])N[*:1]

Assay: Assay (I) efficacy testing on appetite (food intake), ad libitum fed rat model
Type: in vivo, Sprague Dawley (SD) rats
Settings: 3 nmol/kg
Source text: Sprague Dawley (SD) rats from Taconic Europe, Denmark are used for the experiments. The rats have a body weight 200-250 g at the start of experiment. The rats arrive at least 10-14 days before start of experiment to allow acclimatization to experimental settings. During this period the animals are handled at least 2 times. After arrival rats are housed individually for one week in a reversed light/dark phase (meaning that lights are off during daytime and on during nighttime) […]. Since rats are normally active and eat their major part of their daily food intake during the dark period, rats are dosed in the morning right before lights are turned off. This set-up results in the lowest data variation and highst test sensitivity. The experiment is conducted in the rats' home cages and rats have free access to food and water througout the acclimatization period and the experiment period. Each dose of derivative is tested in a group of 5-8 rats. A vehicle group of 6-8 rats is included in each set of testing. Rats are dosed once according to body weight with a 0.01-3 mg/kg solution administered intraperitoneally (ip), orally (po) or subcutaneously (sc). The time of dosing is recorded for each group. After dosing, the rats are returned to their home cages, where they then have access to food and water. The food consumption is recorded individually continuously by on-line registration or manually every hour for 7 hours, and then after 24 h and sometimes 48 h. At the end of the experimental session, the animals are euthanised.
The individual data are recorded in Microsoft excel sheets. Outliers are excluded after applying the Grubbs statistical evaluation test for outliers, and the result is presented graphically using the GraphPad Prism program.

SMILES	Food intake reduction 0-24 h 3 nmol/kg (%)	Food intake reduction 24-48 h 3 nmol/kg (%)
CC[C@H](C)[C@H](NC(=O)[C@@H]1CCCN1C(=O)CNC(=O)[C@H](Cc1ccccc1)NC(=O)[C@H](CC(N)=O)NC(=O)[C@H](CC(N)=O)NC(=O)[C@H](CO)NC(=O)[C@H](CO)NC(=O)[C@H](CCCNC(=N)N)NC(=O)[C@H](Cc1c[nH]cn1)NC(=O)[C@H](CC(C)C)NC(=O)[C@H](Cc1ccccc1)NC(=O)[C@H](CCC(=O)O)NC(=O)[C@H](C)NC(=O)[C@H](CC(C)C)NC(=O)[C@H](CCCNC(=N)N)NC(=O)[C@H](CCC(N)=O)NC(=O)[C@@H](NC(=O)[C@H](C)NC(=O)[C@@H]1CSSC[C@H](NC(=O)[C@H](CCC(=O)O)NC(=O)CC[C@H](NC(=O)CCCCCCCCCCCCCCCCCCC(=O)O)C(=O)O)C(=O)N[C@@H](CC(N)=O)C(=O)N[C@@H]([C@@H](C)O)C(=O)N[C@@H](C)C(=O)N[C@@H]([C@@H](C)O)C(=O)N1)[C@@H](C)O)C(=O)N[C@@H](CC(C)C)C(=O)N1CCC[C@H]1C(=O)N1CCC[C@H]1C(=O)N[C@H](C(=O)N[C@@H](CC(N)=O)C(=O)N[C@H](C(=O)NCC(=O)N[C@@H](CO)C(=O)N[C@@H](CC(N)=O)C(=O)N[C@H](C(=O)N1CCC[C@H]1C(N)=O)[C@@H](C)O)C(C)C)[C@@H](C)O [Example 10, N-alpha-[(S)-4-Carboxy-4-(19-carboxynonadecanoylamino)butyryl]-[Glu1, Glu14, His17, Arg18, Pro37]-pramlintide] ({C20 diacid-γGlu}-ECNTATCATQRLAEFLHRSSNNFGPILPPTNVGSNTP-NH2; disulfide 2-7)	50%	40%
CC[C@H](C)[C@H](NC(=O)[C@@H]1CCCN1C(=O)CNC(=O)[C@H](Cc1ccccc1)NC(=O)[C@H](CO)NC(=O)[C@H](CO)NC(=O)[C@H](CO)NC(=O)[C@H](CO)NC(=O)[C@H](CCCNC(=N)N)NC(=O)[C@H](Cc1c[nH]cn1)NC(=O)[C@H](CC(C)C)NC(=O)[C@H](Cc1ccccc1)NC(=O)[C@H](CCC(=O)O)NC(=O)[C@H](C)NC(=O)[C@H](CC(C)C)NC(=O)[C@H](CCCNC(=N)N)NC(=O)[C@H](CCC(N)=O)NC(=O)[C@@H](NC(=O)[C@H](C)NC(=O)[C@@H]1CSSC[C@H](NC(=O)[C@H](Cc2c[nH]cn2)NC(=O)CC[C@H](NC(=O)CCCCCCCCCCCCCCCCCCC(=O)O)C(=O)O)C(=O)N[C@@H](CC(N)=O)C(=O)N[C@@H]([C@@H](C)O)C(=O)N[C@@H](C)C(=O)N[C@@H]([C@@H](C)O)C(=O)N1)[C@@H](C)O)C(=O)N[C@@H](CC(C)C)C(=O)N1CCC[C@H]1C(=O)N1CCC[C@H]1C(=O)N[C@H](C(=O)N[C@@H](CC(=O)O)C(=O)N[C@H](C(=O)NCC(=O)N[C@@H](CO)C(=O)N[C@@H](CC(=O)O)C(=O)N[C@H](C(=O)N[C@@H](Cc1ccc(O)cc1)C(N)=O)[C@@H](C)O)C(C)C)[C@@H](C)O [compound 9] ({C20 diacid-γGlu}-HCNTATCATQRLAEFLHRSSSSFGPILPPTDVGSDTY-NH2; disulfide 2-7 (inferred); C-terminus assumed)	39%	32%
